# Biological target: T1, OCT1 (Homo sapiens, UniProt O15245)
# T1 construct: expressed in transfected cells; host or cells: HEK293
# T1 sequence (O15245 1-554): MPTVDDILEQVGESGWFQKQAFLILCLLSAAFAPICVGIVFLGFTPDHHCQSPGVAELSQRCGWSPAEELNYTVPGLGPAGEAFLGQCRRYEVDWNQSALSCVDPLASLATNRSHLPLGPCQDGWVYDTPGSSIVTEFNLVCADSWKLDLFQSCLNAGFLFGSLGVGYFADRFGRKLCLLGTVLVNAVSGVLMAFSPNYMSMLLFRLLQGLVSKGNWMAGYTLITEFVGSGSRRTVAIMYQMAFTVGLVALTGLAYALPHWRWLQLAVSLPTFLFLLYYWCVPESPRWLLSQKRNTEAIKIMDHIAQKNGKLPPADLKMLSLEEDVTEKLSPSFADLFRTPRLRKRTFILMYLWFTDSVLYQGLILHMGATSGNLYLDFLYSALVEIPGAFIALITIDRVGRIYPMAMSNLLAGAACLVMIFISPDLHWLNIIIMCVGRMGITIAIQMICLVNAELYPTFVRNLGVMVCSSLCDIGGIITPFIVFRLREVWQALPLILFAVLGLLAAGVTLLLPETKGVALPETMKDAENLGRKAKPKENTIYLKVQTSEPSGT
# Assay: Cell uptake in OCT1 overexpressing HEK293 cells over empty-vector transfected cells
# Assay type: cell-based
# Conditions: not given
row,Compound,OCT1 Ratio
1,CCOC(=O)C1(c2ccccc2)CCC=CC1N(C)C (centres unmarked) [Tilidine],1.30
2,N[C@@H]1C[C@H]1c1ccccc1 (racemic) [Tranylcypromine],1.60
3,COc1ccc2c3c1O[C@H]1C(=O)CC[C@H]4[C@@H](C2)N(C)CC[C@]314 [Hydrocodone],1.20
4,CC(C)(C)NCC(O)c1cc(Cl)c(N)c(Cl)c1 (centres unmarked) [Clenbuterol],1.10
5,Nc1nc2c(ncn2COCCO)c(=O)[nH]1 [Acyclovir],2.00
6,CN[C@@H](C)[C@H](O)c1ccccc1 [Ephedrine],1.50
7,CNCC1CCCCC1(O)c1cccc(OC)c1 (centres unmarked) [N-Desmethyltramadol],2.40
8,CC(C)(C)NCC(O)c1ccc(O)c(CO)n1 (centres unmarked) [Pirbuterol],80.90
9,CN1[C@@H]2C[C@@H](OC(=O)[C@H](CO)c3ccccc3)C[C@H]1[C@@H]1O[C@@H]12 [Scopolamin],1.10
10,CNC1(c2ccccc2Cl)CCCCC1=O (centres unmarked) [Ketamine],1.10
11,CCOC(=O)[C@]1(c2ccccc2)CCC=C[C@H]1NC [Nortilidine],1.62
12,CCN(CC)CCNC(=O)c1cc(Cl)c(N)cc1OC [Metoclopramide],1.80
13,COc1ccc2c3c1O[C@H]1[C@@H](O)CC[C@H]4[C@@H](C2)N(C)CC[C@@]341 [Dihydrocodeine],0.80
14,CNC(=C[N+](=O)[O-])NCCSCc1ccc(CN(C)C)o1 [Ranitidin],18.10
15,CNCC[C@H](Oc1cccc2ccccc12)c1cccs1 [Duloxetine],1.20
16,CCOC(=O)c1cncn1[C@H](C)c1ccccc1 [Etomidate],0.94
17,COc1ccc2c3c1O[C@H]1C(=O)CC[C@@]4(O)[C@@H](C2)N(C)CC[C@]314 [Oxycodone],0.90
18,CN(C)CC(c1ccc(O)cc1)C1(O)CCCCC1 (centres unmarked) [Desmethylvenlafaxine],3.30
19,Fc1ccc([C@@H]2CCNC[C@H]2COc2ccc3c(c2)OCO3)cc1 [Paroxetin],1.17
20,Cn1c(=O)c2[nH]cnc2n(C)c1=O [Theophyllin],1.00
21,N#CC(CCN1CCC(C(N)=O)(N2CCCCC2)CC1)(c1ccccc1)c1ccccc1 [Piritramide],1.18
22,COC(=O)C(c1ccccc1)C1CCCCN1 (centres unmarked) [Methylphenidate],1.90
23,CCC1(c2cccc(O)c2)CCCCN(C)C1 (centres unmarked) [Meptazinol],3.20
24,COc1cccc2c1C(=O)c1c(O)c3c(c(O)c1C2=O)C[C@@](O)(C(C)=O)C[C@@H]3O[C@H]1C[C@H](N)[C@H](O)[C@H](C)O1 [Daunorubicin],1.10

# Same assay, conditions: cell uptake in OCT1 overexpressing cells over uptake in mock transfected cells
row,Compound,OCT1 Ratio
1,CC(C)NCC(O)COc1cccc2[nH]ccc12 (centres unmarked) [Pindolol],1.20
2,CN(C)CCC=C1c2ccccc2COc2ccccc21 [Doxepin],1.30
3,NC(=O)c1cnccn1 [Pyrazinamide],0.80
4,CN1CCC[C@@H]1Cc1c[nH]c2ccc(CCS(=O)(=O)c3ccccc3)cc12 [Eletriptan],1.20
5,CCCC(=O)Nc1ccc(OCC(O)CNC(C)C)c(C(C)=O)c1 (centres unmarked) [Acebutolol],5.20
6,C[N+](C)(C)CC(=O)O [Betaine],1.00
7,CC(CCc1ccc(O)cc1)NCCc1ccc(O)c(O)c1 (centres unmarked) [Dobutamine],14.70
8,CN[C@@H]1CCc2[nH]c3ccc(C(N)=O)cc3c2C1 [Frovatriptan],33.10
9,C[C@@H](O)[C@H]1C(=O)N2C(C(=O)O)=C(S[C@@H]3CN[C@H](C(=O)N(C)C)C3)[C@H](C)[C@H]12 [Meropenem],1.10
10,CC12CC3CC(C)(C1)CC(N)(C3)C2 [Memantine],1.10
11,CNC[C@H](O)c1cccc(O)c1 [Phenylephrine],10.60
12,Cc1ncc(C[n+]2csc(CCO)c2C)c(N)n1 [Thiamine],11.60
13,CC(C)NCC(O)COc1cccc2ccccc12 (centres unmarked) [Propranolol],1.10
14,COc1ccccc1N1CCN(CCCNc2cc(=O)n(C)c(=O)n2C)CC1 [Urapidil],1.10
15,C[N+](C)(C)CCO [Choline],1.50
16,COc1cc(Cc2cnc(N)nc2N)cc(OC)c1OC [Trimethoprim],1.90
17,NNC(=O)c1ccncc1 [Isoniazid],0.94
18,COc1cc(OC)c(C(=O)CCCN2CCCC2)c(OC)c1 [Buflomedil],1.00
19,CN(C)CCC=C1c2ccccc2CCc2ccccc21 [Amitriptyline],1.20
20,CC(C)NCC(O)COc1ccc(COCCOC(C)C)cc1 (centres unmarked) [Bisoprolol],1.00
21,CN(C)CCc1c[nH]c2ccc(C[C@H]3COC(=O)N3)cc12 [Zolmitriptan],10.00
22,Cc1nccn1CC1CCc2c(c3ccccc3n2C)C1=O (centres unmarked) [Ondansetron],1.00
23,Cn1c(=O)[nH]c2ncn(C)c2c1=O [Paraxanthine],1.00
24,CC[C@@H](C(N)=O)N1CCCC1=O [Levetiracetam],1.00

# Biological target: T1, OCT1
# Assay: not given
# Set-up: method as in PMID 34093211
# Conditions: cited from earlier work
row,Compound,OCT1 substrate status
1,CN(C)CCC=C1c2ccccc2CCc2ccccc21 [Amitriptyline],not OCT1 substrates

# System: not given
# Assay: not given
# Set-up: method as in PMID 19243716
# Conditions: published studies; cited from earlier work
row,Compound,variation of blood concentrations
1,c1cnc2cc3c(cc2n1)[C@@H]1CNC[C@H]3C1 [varenicline],more than 100 fold

# Source: publication PMC9369162, “Substrates of the Human Brain Proton-Organic Cation Antiporter and Comparison with Organic Cation Transporter 1 Activities” (International Journal of Molecular Sciences, 2022)
